Assay results published in patent US11634443B2, “Treprostinil prodrugs” (United Therapeutics Corporation, priority 2019, dated 2023).
Where two headings read alike, the source gives them in different places.

How the values were obtained:
[1] = Plasma stability and formation of treprostinil, human plasma; format: in vitro ADME; conditions: for Formation of Treprostinil, Concentration: prodrug dosed at 1 μM
Method: (§1) Studies were carried out in mixed-gender human plasma male Sprague-Dawley rat plasma, and male Beagle dog plasma. All plasma was obtained from Bioreclamation and collected on K2EDTA. Plasma was adjusted to pH 7.4 prior to initiating the experiments. DMSO stocks were first prepared for the test articles. […] The vials were kept in a benchtop Thermomixer® for the duration of the experiment. […] Samples were stored at 4° C. until the end of the experiment. After the final time point was sampled, the plate was mixed and then centrifuged at 3000 rpm for 10 minutes.

[2] = Plasma stability and formation of treprostinil, rat plasma; format: in vitro ADME; conditions: for Formation of Treprostinil, Concentration: prodrug dosed at 1 μM; for Half-Life / Percent Remaining: 1 μM, 37° C.
Method: as §1

[3] = Plasma stability and formation of treprostinil, dog plasma; format: in vitro ADME; conditions: for Formation of Treprostinil, Concentration: prodrug dosed at 1 μM; for Half-Life / Percent Remaining: 1 μM, 37° C.
Method: as §1

[4] = Stability and formation of treprostinil in human cryopreserved hepatocytes
Method: (§2) Mixed-gender human cryopreserved hepatocytes, male Sprague-Dawley rat cryopreserved hepatocytes, and male Beagle dog cryopreserved hepatocytes were purchased from XenoTech. The hepatocytes were thawed and prepared according to the vendor's instructions, pooled into Krebs Henseleit buffer (KHB, pH 7.4), and kept on ice prior to the experiments. […] The final DMSO content in the incubation mixture was ≤0.1%. […] Aliquots of the test article were withdrawn (n=1) at 0, 15, 30, 60, and 120 minutes. […] Aliquots of 7-HC were withdrawn (n=1) at 0 and 15 minutes. The reaction was immediately terminated by adding two volumes of ice-cold acetonitrile (ACN) to the test article samples and three volumes of ACN containing internal standard to the positive control samples.

[5] = Stability and formation of treprostinil in rat cryopreserved hepatocytes
Method: as §2

[6] = Stability and formation of treprostinil in dog cryopreserved hepatocytes
Method: as §2

[7] = Stability and formation of treprostinil in simulated intestinal fluid; format: in vitro ADME; conditions: for Half-Life: SIF pH 6.8, 1 μM, 37° C.; for Formation of Treprostinil, Concentration: SIF, prodrug dosed at 1 μM
Method: Studies were carried out in simulated intestinal fluid (SIF). SIF was prepared by dissolving 6.8 g of KH2PO4 in 250 mL of water, mixing, and then adding 77 mL of 0.2 N NaOH and 750 mL of water. Pancreatin (10 g) was added, mixed, and the pH was adjusted to pH 6.8 with 10 N NaOH. DMSO stocks were first prepared for the test articles. Aliquots of the DMSO solutions were dosed into 0.4 mL of matrix, which had been pre-warmed to 37° C., at a final test article concentration of 1 μM. The vials were kept in a benchtop Thermomixer® for the duration of the experiment. A separate tube was dosed for each time point in each matrix. At the appropriate times (0, 15, 30, 60, and 120 minutes), 0.8 mL of acetonitrile (ACN) containing 1% formic acid and internal standard was added directly to a single tube. Samples were mixed and then immediately stored at 4° C. until the end of the experiment. After the final time point was sampled, the plate was mixed and then centrifuged at 3000 rpm for 10 minutes. Aliquots of the supernatant were removed, diluted 1:1 into distilled water containing internal standard, and analyzed by LC-MS/MS against calibration standards prepared in a matched matrix. All samples were analyzed for the dosed prodrugs as well as the drug, treprostinil. The test article concentration was compared to the concentration at time 0 to determine the percent of test article remaining at each time point. Half-lives were calculated using GraphPad software, fitting to a single-phase exponential decay equation.

[8] = molecular target: T1, prostaglandin I2 (PGI2) receptor (IP) (Homo sapiens, UniProt P43119); test: IP receptor cAMP assay (agonist mode); format: cell-based; conditions: cAMP, cells overexpressing human IP
T1 construct: expressed in transfected cells; host or cells: CHO-K1
Method: (§3) Assay Buffer: • EP1 Calcium and DP1 cAMP Assays: HBSS plus 20 mM HEPES • EP2 and IP1 cAMP Assays: 1 mM IBMX in HBSS plus 20 mM HEPES
(§4) Cells were thawed from frozen cells and resuspended in assay buffer at desired concentrations. cAMP or Calcium assays were performed according to the manufacturer's protocol using Multiscreen™ TR-FRET cAMP 1.0 No Wash Assay Kit or Multiscreen™ Calcium 1.0 No Wash Kit.
(§5) Gas Cyclic AMP (cAMP) Assay: In agonist mode testing, cells were seeded in a 384-well plate at an appropriate density and then were treated with compounds and incubated at 37° C. for 20 minutes. The reaction was terminated by sequentially adding sequentially adding trFluor™ Eu-labeled cAMP and trFluor™ 650-labeled anti-cAMP antibody in lysis buffer. […] All testing wells contained 0.1% DMSO in the final concentrations.
(§6) Data in graphs are represented in Mean±SD. Dose-dependent responses were fitted with sigmoidal dose-response curves allowing variable slopes using GraphPad Prism version 6 (Graphpad Prism).
(§7) These studies used cell lines overexpressing either human IP, EP2 or DP1, or EP1 receptors, and following incubation with varying concentrations of compounds, cAMP levels were measured using Fluorescence Resonance Energy Transfer (FRET).

[9] = molecular target: T2, prostaglandin E2 (PGE2) receptor 2 (EP2) (Homo sapiens, UniProt P43116); test: EP2 receptor cAMP assay (agonist mode); format: cell-based; conditions: cAMP, cells overexpressing human EP2
T2 construct: expressed in transfected cells; host or cells: HEK293T
Method: as §3, §4, §5, §6, §7

[10] = molecular target: T3, prostaglandin D2 (PGD2) receptor 1 (DP1) (Homo sapiens, UniProt Q13258); test: DP1 receptor cAMP assay (agonist mode); format: cell-based; conditions: cAMP, cells overexpressing human DP1
T3 construct: expressed in transfected cells; host or cells: HEK293T
T3 sequence (Q13258 1-359): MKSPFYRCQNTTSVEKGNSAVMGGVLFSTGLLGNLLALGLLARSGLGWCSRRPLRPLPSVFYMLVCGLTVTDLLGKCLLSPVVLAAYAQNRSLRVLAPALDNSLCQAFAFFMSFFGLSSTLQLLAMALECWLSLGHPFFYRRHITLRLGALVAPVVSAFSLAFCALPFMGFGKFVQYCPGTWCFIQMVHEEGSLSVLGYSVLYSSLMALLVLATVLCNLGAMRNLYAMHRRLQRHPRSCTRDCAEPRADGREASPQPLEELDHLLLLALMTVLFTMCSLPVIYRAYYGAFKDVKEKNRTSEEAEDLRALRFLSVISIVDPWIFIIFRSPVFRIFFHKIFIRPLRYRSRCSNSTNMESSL
Method: as §3, §4, §5, §6, §7

[11] = Hydrolysis of treprostinil prodrugs to treprostinil at pH 6, 7 and 8 and 40 C; format: physicochemical
Source text: Tables 26, 27 and 28 present data for hydrolysis of selected treprostinil prodrugs at pH 6, 7 and 8, respectively, and 40 C.

[12] = microsomes
Method: (§8) Mixed-gender human liver microsomes, male Sprague-Dawley rat liver microsomes, and male Beagle dog liver microsomes were purchased from XenoTech. The reaction mixture, minus NADPH, was prepared as described below. […] An aliquot of the reaction mixture (without cofactor) was equilibrated in a shaking water bath at 37° C. for 5 minutes. The reaction was initiated by the addition of cofactor, and the mixture was incubated in a shaking water bath at 37° C. Aliquots (200 μL) were withdrawn at 0, 10, 20, 30, and 60 minutes. Test article samples were immediately combined with 400 μL of ice-cold acetonitrile (ACN) to terminate the reaction. […] The samples were then mixed and centrifuged to precipitate proteins. Aliquots of the supernatant were removed, diluted 1:1 into distilled water containing internal standard, and analyzed by LC-MS/MS against calibration standards prepared in a matched matrix. All samples were analyzed for the dosed prodrugs as well as the drug, treprostinil. The test article concentration was compared to the concentration at time 0 to determine the percent of test article remaining at each time point. Half-lives and clearance were calculated using GraphPad software, fitting to a single-phase exponential decay equation.
Liver Microsomes 0.5 mg/mL
Potassium Phosphate, pH 7.4 100 mM

[13] = microsomes; remark: listed apart in the source
Method: as §8
Liver Microsomes 0.5 mg/mL
Potassium Phosphate, pH 7.4 100 mM

T1 sequence (P43119 whole entry): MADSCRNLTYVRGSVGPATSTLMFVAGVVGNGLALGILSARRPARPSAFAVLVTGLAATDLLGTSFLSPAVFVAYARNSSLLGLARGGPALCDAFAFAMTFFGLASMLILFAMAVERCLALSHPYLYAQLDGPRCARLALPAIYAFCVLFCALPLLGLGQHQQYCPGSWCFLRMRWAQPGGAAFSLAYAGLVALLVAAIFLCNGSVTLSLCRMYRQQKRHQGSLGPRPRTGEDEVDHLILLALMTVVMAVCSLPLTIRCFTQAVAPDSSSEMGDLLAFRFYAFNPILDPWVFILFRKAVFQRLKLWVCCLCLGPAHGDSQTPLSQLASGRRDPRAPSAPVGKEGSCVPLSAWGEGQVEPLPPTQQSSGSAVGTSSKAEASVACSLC
T2 sequence (P43116 whole entry): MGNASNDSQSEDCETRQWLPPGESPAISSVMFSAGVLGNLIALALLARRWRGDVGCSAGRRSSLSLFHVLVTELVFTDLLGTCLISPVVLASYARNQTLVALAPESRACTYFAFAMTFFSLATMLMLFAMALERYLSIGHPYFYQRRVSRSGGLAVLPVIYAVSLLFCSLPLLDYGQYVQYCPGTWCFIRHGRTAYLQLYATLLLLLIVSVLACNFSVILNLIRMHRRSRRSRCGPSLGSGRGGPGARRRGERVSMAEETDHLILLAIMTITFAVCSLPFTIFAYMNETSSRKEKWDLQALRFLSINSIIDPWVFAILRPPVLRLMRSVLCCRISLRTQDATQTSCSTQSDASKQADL

treprostinil diacetate [Prodrug LXXII]
Formation of Treprostinil, Concentration ([1]; 0 min): 0 µM | Half-Life ([1]; 1 μM, 37° C.): >2 h | Formation of Treprostinil, Concentration ([1]; 15 min): 0 µM | Formation of Treprostinil, Concentration ([1]; 30 min): 0 µM | Percent Remaining ([1]; 120 min, 1 μM, 37° C.): 86.5% | Formation of Treprostinil, Concentration ([1]; 120 min): 0 µM | Formation of Treprostinil, Concentration [1]: 0 µM | Formation of Treprostinil, Concentration ([2]; 0 min): 0 µM | Half-Life [2]: >2 h | Formation of Treprostinil, Concentration ([2]; 60 mm): 0.00595 µM | Formation of Treprostinil, Concentration ([2]; 15 min): 0 µM | Formation of Treprostinil, Concentration ([2]; 30 min): 0 µM | Percent Remaining ([2]; 60 min): 83.6% | Percent Remaining ([2]; 120 min): 79.7% | Formation of Treprostinil, Concentration ([2]; 120 min): 0.0151 µM | Formation of Treprostinil, Concentration ([3]; 0 min): 0 µM | Half-Life [3]: >2 h | Percent Remaining ([3]; 15 min): 96.7% | Formation of Treprostinil, Concentration ([3]; 15 min): 0 µM | Formation of Treprostinil, Concentration ([3]; 30 min): 0 µM | Percent Remaining ([3]; 120 min): 82.9% | Formation of Treprostinil, Concentration ([3]; 120 min): 0 µM | Formation of Treprostinil, Concentration [3]: 0 µM | Treprostinil Concentration, 0 min [4]: 0.00458 µM | Treprostinil Concentration, 15 min [4]: 0.562 µM | Treprostinil Concentration, 30 min [4]: 0.491 µM | Treprostinil Concentration, 60 min [4]: 0.433 µM | Treprostinil Concentration, 120 min [4]: 0.364 µM | Treprostinil Concentration, 0 min [5]: 0 µM | Treprostinil Concentration, 15 min [5]: 0.24 µM | Treprostinil Concentration, 30 min [5]: 0.301 µM | Treprostinil Concentration, 60 min [5]: 0.298 µM | Treprostinil Concentration, 120 min [5]: 0.274 µM | Treprostinil Concentration, 0 min [6]: 0.0636 µM | Treprostinil Concentration, 15 min [6]: 0.671 µM | Treprostinil Concentration, 30 min [6]: 0.541 µM | Treprostinil Concentration, 60 min [6]: 0.465 µM | Treprostinil Concentration, 120 min [6]: 0.401 µM | CLint ([6]; hepatocytes): >0.0308 mL/min/mg protein | Half-Life ([6]; hepatocytes): <0.25 h | Half-Life [7]: >2 h | Formation of Treprostinil, Concentration ([7]; 0 min): 0 µM | Formation of Treprostinil, Concentration ([7]; 15 min): 0 µM | Formation of Treprostinil, Concentration ([7]; 30 min): 0 µM | Formation of Treprostinil, Concentration ([7]; 60 min): 0 µM | Formation of Treprostinil, Concentration ([7]; 120 min): 0.0126 µM | Activity at the IP receptor compared to treprostinil [8]: inactive | Activity at the EP2 receptor compared to treprostinil [9]: non-traditional dose response curve | Activity at the DP1 receptor compared to treprostinil [10]: several hundred-fold less active | Hydrolysis of prodrug to treprostinil, % Area, t = 1 week ([11]; pH 6, 40 C): 0.00 % Area | Hydrolysis of prodrug to treprostinil, % Area, t = 2 weeks ([11]; pH 6, 40 C): 0.00 % Area | Hydrolysis of prodrug to treprostinil, % Area, t = 3 weeks ([11]; pH 6, 40 C): 0.00 % Area | Hydrolysis of prodrug to treprostinil, % Area, t = 1 week ([11]; pH 7, 40 C): 0.00 % Area | Hydrolysis of prodrug to treprostinil, % Area, t = 2 weeks ([11]; pH 7, 40 C): 0.00 % Area | Hydrolysis of prodrug to treprostinil, % Area, t = 3 weeks ([11]; pH 7, 40 C): 0.00 % Area | Hydrolysis of prodrug to treprostinil, % Area, t = 1 week ([11]; pH 8, 40 C): 0.00 % Area | Hydrolysis of prodrug to treprostinil, % Area, t = 2 weeks ([11]; pH 8, 40 C): 0.00 % Area | Hydrolysis of prodrug to treprostinil, % Area, t = 3 weeks ([11]; pH 8, 40 C): 0.00 % Area | Half-Life [12]: <0.167 h | Half-Life [13]: <0.167 h

treprostinil dicarbonate [Prodrug LXXI]
Half-Life ([1]; 1 μM, 37° C.): >2 h | Half-Life [2]: <0.25 h | Half-Life [3]: >2 h | Treprostinil Concentration, 0 min [4]: 0 µM | Treprostinil Concentration, 15 min [4]: 0.118 µM | Treprostinil Concentration, 30 min [4]: 0.211 µM | Treprostinil Concentration, 60 min [4]: 0.273 µM | Treprostinil Concentration, 120 min [4]: 0.259 µM | Treprostinil Concentration, 0 min [5]: 0 µM | Treprostinil Concentration, 15 min [5]: 0.422 µM | Treprostinil Concentration, 30 min [5]: 0.403 µM | Treprostinil Concentration, 60 min [5]: 0.347 µM | Treprostinil Concentration, 120 min [5]: 0.292 µM | Treprostinil Concentration, 0 min [6]: 0.00293 µM | Treprostinil Concentration, 15 min [6]: 0.501 µM | Treprostinil Concentration, 30 min [6]: 0.408 µM | Treprostinil Concentration, 60 min [6]: 0.348 µM | Treprostinil Concentration, 120 min [6]: 0.303 µM | Half-Life [7]: >2 h | Formation of Treprostinil, Concentration ([7]; 0 min): 0 µM | Formation of Treprostinil, Concentration ([7]; 15 min): 0 µM | Formation of Treprostinil, Concentration ([7]; 30 min): 0 µM | Formation of Treprostinil, Concentration ([7]; 60 min): 0 µM | Formation of Treprostinil, Concentration ([7]; 120 min): 0.0121 µM | Activity at the IP receptor compared to treprostinil [8]: inactive | Activity at the EP2 receptor compared to treprostinil [9]: inactive | Hydrolysis of prodrug to treprostinil, % Area, t = 1 week ([11]; pH 6, 40 C): 0.00 % Area | Hydrolysis of prodrug to treprostinil, % Area, t = 2 weeks ([11]; pH 6, 40 C): 0.00 % Area | Hydrolysis of prodrug to treprostinil, % Area, t = 3 weeks ([11]; pH 6, 40 C): 0.00 % Area | Hydrolysis of prodrug to treprostinil, % Area, t = 1 week ([11]; pH 7, 40 C): 0.00 % Area | Hydrolysis of prodrug to treprostinil, % Area, t = 2 weeks ([11]; pH 7, 40 C): 0.00 % Area | Hydrolysis of prodrug to treprostinil, % Area, t = 3 weeks ([11]; pH 7, 40 C): 0.00 % Area | Hydrolysis of prodrug to treprostinil, % Area, t = 1 week ([11]; pH 8, 40 C): 0.00 % Area | Hydrolysis of prodrug to treprostinil, % Area, t = 2 weeks ([11]; pH 8, 40 C): 0.00 % Area | Hydrolysis of prodrug to treprostinil, % Area, t = 3 weeks ([11]; pH 8, 40 C): 0.38 % Area
